Experimental data as given in ChEMBL document CHEMBL5729415, “Compounds for treatment of PD-L1 diseases” (2022).

The molecules below were run against Programmed cell death 1 ligand 1 (Homo sapiens, UniProt Q9NZQ7) (assay: Enzyme-Linked Immunosorbent Assay—ELISA: 96 Well plates were coated with 1 μg/mL of human PD-L1 (obtained from R&D) in PBS overnight at 4′° C. The wells were then blocked with 2% BSA in PBS (W/V) with 0.05% TWEEN-20 for 1 hour at 37′° C. The plates were washed 3 times with PBS/0.05% TWEEN-20 and the compounds were serial diluted (1:5) in dilution medium and added to the ELISA plates. Human PD-1 and biotin 0.3 μg/mL (ACRO Biosystems) were added and incubated for 1 hour at 37° C. then washed 3 times with PBS/0.05% TWEEN-20. A second block was performed with 2% BSA in PBS (WNV)/0.05% TWEEN-20 for 10 min at 37° C. and the plates were washed 3 times with PBS/0.05% TWEEN-20. Streptavidin-HIRP was added for 1 hour at 37° C. then the plates were washed 3 times with PBS/0.05% TWEEN-20. TMB substrate was added and reacted for 20 min at 37° C. A stop solution (2 N aqueous H2SO4) was added.).
Programmed cell death 1 ligand 1, sequence (Q9NZQ7 whole entry): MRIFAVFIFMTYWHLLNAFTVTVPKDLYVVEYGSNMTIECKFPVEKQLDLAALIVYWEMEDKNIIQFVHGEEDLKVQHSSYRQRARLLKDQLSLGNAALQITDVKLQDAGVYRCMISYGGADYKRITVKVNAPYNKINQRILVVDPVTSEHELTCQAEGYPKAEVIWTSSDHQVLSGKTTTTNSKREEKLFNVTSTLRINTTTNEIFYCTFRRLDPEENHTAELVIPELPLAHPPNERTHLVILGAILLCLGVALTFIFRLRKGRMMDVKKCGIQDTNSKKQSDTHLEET
Molecule COc1cccc(-c2cccc(-c3cc(F)c(CN)c(OC)c3)c2C)c1 has an IC50 of under 1000 nM.
For COc1cc(-c2cccc(-c3ccc4c(c3)OCCO4)c2C)cc(F)c1CN, the IC50 was under 1000 nM.
COc1cc(-c2cccc(-c3cccc(-c4cc(F)c(CN)c(OC)c4)c3C)c2C)cc(F)c1CN gave an IC50 of under 1000 nM.
With COc1cc(-c2cccc(-c3cccc(-c4ccc(CN)cc4)c3C)c2C)cc(F)c1CN the IC50 was under 1000 nM.
For COc1cc(OC)c(F)c(-c2cccc(-c3cc(F)c(CN)c(OC)c3)c2C)c1F, the IC50 was under 1000 nM.
COc1cc(-c2cccc(-c3ccc4c(c3C)OCCO4)c2C)cc(F)c1CN showed an IC50 of under 1000 nM.
In the case of COC(=O)c1ccc(-c2cccc(-c3cccc(-c4cc(F)c(CN)c(OC)c4)c3C)c2C)cc1OC, the IC50 is reported as under 1000 nM.
In the case of COc1cc(-c2cccc(-c3ccc4c(c3F)OCCO4)c2C)cc(F)c1CN, the IC50 is reported as under 1000 nM.
Cc1c(-c2ccc(CN)cc2)cccc1-c1cccc(-c2ccc(CN)cc2)c1C gave an IC50 of under 1000 nM.
In the case of COc1cc(-c2cccc(-c3ccc4c(c3)OC(CN)CO4)c2C)cc(F)c1CN (centres undefined), the IC50 is reported as under 1000 nM.
For COc1cc(-c2cccc(-c3ccc4nc[nH]c(=O)c4c3)c2C)cc(F)c1CN, the IC50 was under 1000 nM.
COc1ccc(F)c(-c2cccc(-c3cc(F)c(CN)c(OC)c3)c2C)c1F was tested, and the IC50 was under 1000 nM.
COc1cccc(-c2cccc(-c3cc(F)c(CN)c(OC)c3)c2C)c1F showed an IC50 of under 1000 nM.
COc1cc(-c2cccc(-c3cccc(-c4cc(F)c(CN)c(OC)c4)c3C)c2C)ccc1CC(N)=O was tested, and the IC50 was under 1000 nM.
COc1cc(-c2cccc(-c3cccc(C)c3F)c2C)cc(F)c1CN gave an IC50 of under 1000 nM.
COc1cc(F)cc(-c2cccc(-c3cc(F)c(CN)c(OC)c3)c2C)c1 gave an IC50 of under 1000 nM.
COc1cc(-c2cccc(-c3ccc4c(c3)NC(=O)CO4)c2C)cc(F)c1CN gave an IC50 of under 1000 nM.
With COc1cc(-c2cccc(-c3cccc(C)c3)c2C)cc(F)c1CN the IC50 was under 1000 nM.
With COc1cccc(-c2cccc(-c3cc(F)c(CN)c(OC)c3)c2C)c1C the IC50 was under 1000 nM.
